These results are taken from US10239835B2, “N-alkylaryl-5-oxyaryl-octahydro-cyclopenta[c]pyrrole negative allosteric modulators of NR2B” (Luc Therapeutics, Inc., priority 2014, dated 2019).

Where only a bound is given, the exact number is not on record here.

Assay [1] deals with HEK293 cells expressing NR1/NR2B (Homo sapiens (Human), UniProt Q05586+Q13224). Nature of the assay: NR2B NAM Assay (FDSS Ca2+ influx cell assay). The settings on record: NR2B NAM assay, class of inhibitory concentration; read-out: Activity Category. Format: cell-based. The method, then:
(§1) Cell Culture and plating: HEK293 cells expressing NR1/NR2B (Chantest, Cleveland, Ohio) were grown to 70-80% confluency as an adherent monolayer in standard tissue culture flasks at 37° C., 5% CO2 per supplier's instructions. NR2B expression was induced by incubation with 0.3-0.4 μg/ml tetracycline in the presence of 4 mM ARL-15896 for 18-24 hours under the same growth conditions, then transferred to 30° C. for another 3-5 hours.
(§2) After induction, cell culture medium was removed and cells were rinsed once with Ca^2+ and Mg^2+-free Dulbecco's phosphate buffered saline. Cells were then removed from the flask using TrypLE™ Express (Life Technologies) according to the manufacturer's instructions and collected to 50 ml centrifuge tubes. Following two washes in Ca^2+/Mg^2+-free HBSS with 20 mM HEPES (HHnoCa), cells were counted and viability assessed using trypan blue. To load cells with Ca^2+-sensitive dye, they were resuspended in fluo-8 plus Component B (AAT Bioquest Products) diluted in HHnoCa and incubated 15 minutes at 37° C., followed by 30 minutes at room temp (in dark). Cells were then washed and resuspended in HHnoCa to remove extracellular dye and plated in 384-well plates (Falcon, uncoated) at 20,000-30,000 cells/well in a final volume of 25 μl/well.
(§3) FDSS Assay: To each well of the plate, 10 μL test compound, control (MK801) or HHnoCa buffer was added at different concentrations to yield final concentrations of 0.001, 0.003, 0.010, 0.030, 0.100, 0.300, 1.000, 3.000, 10.000, or 30.000 uM final concentration of DMSO of 0.1%. Following 10 minutes pre-incubation in the dark, plates are loaded onto the Hamamatsu FDSS 6000. After collecting baseline fluorescence images, 3 μM glutamate, 3 μM glycine, and 1 mM Ca^2+ in HHnoCa buffer is added to each well, and Ca^2+ is recorded for 3 minutes. Data were processed by computing ratio of fluorescence at the end of data collection to baseline fluorescence to assess degree of Ca^2+ influx inhibition relative to that observed in MK801.
(§4) Table 8 below provides activity of each compound according to the legend that “++++” indicates inhibition at a concentration<100 nM; “+++” indicates inhibition at a concentration between 100 nM and 1 μM of the disclosed compound; “++” indicates inhibition at a concentration of from 1 μM to 10 μM; and “+” indicates inhibition at a concentration>10 μM.

In assay [2] the target is HEK293 cells expressing NR1/NR2B (Homo sapiens (Human), UniProt Q13224). The assay can be described thus: NR2B NAM Assay (FDSS Ca2+ influx cell assay). Type of assay: cell-based. As to conditions: Ca2+ influx inhibition relative to MK801; 3 μM glutamate, 3 μM glycine, 1 mM Ca2+; read-out: NR2B NAM IC50. As to the method: as §1, §2, §3, §4
Chain of HEK293 cells expressing NR1/NR2B (Homo sapiens (Human), UniProt Q13224) (Q13224 27-1484, other chains not shown): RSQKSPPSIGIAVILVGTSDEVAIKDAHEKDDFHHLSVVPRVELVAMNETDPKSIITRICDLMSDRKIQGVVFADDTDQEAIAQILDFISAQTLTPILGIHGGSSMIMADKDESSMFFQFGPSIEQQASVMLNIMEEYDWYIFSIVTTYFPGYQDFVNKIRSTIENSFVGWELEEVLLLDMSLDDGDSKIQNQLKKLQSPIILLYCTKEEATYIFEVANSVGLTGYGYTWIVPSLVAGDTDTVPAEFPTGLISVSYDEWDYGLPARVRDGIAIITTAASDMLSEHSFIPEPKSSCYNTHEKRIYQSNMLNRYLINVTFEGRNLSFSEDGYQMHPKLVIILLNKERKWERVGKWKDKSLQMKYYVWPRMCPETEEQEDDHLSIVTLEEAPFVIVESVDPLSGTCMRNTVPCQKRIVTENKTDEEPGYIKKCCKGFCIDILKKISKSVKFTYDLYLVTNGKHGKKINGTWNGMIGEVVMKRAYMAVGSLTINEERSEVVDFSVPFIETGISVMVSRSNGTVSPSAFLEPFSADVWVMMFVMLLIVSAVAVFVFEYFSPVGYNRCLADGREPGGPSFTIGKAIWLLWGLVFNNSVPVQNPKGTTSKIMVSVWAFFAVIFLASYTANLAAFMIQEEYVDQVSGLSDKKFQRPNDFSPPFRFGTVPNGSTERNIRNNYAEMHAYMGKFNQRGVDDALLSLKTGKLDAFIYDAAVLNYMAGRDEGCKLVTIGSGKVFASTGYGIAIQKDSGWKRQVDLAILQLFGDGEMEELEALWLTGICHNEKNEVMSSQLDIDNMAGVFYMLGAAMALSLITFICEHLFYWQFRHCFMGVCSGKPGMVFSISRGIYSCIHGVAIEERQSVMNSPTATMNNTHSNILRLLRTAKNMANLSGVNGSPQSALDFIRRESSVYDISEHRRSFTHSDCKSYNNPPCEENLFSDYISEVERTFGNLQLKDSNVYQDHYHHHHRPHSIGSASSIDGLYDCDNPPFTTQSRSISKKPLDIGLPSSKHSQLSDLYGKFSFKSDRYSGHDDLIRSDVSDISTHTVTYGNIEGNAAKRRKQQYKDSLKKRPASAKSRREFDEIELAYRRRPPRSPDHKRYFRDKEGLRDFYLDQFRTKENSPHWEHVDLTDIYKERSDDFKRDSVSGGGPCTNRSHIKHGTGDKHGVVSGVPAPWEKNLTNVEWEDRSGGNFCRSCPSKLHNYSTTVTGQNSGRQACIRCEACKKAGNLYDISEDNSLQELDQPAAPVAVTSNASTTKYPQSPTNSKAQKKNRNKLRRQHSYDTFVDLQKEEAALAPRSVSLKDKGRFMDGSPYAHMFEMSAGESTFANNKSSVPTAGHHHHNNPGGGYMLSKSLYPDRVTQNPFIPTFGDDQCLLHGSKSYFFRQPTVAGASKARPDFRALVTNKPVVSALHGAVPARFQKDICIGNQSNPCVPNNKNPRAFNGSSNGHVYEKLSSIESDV

Chain of HEK293 cells expressing NR1/NR2B (Homo sapiens (Human), UniProt Q05586+Q13224) (Q13224 27-1484, other chains not shown): as above

With `Oc1ccc(C(O)CN2C[C@H]3C[C@H](Oc4ccc(F)c(F)c4)C[C@H]3C2)nc1` (stereo partly drawn), the IC50 in assay [1] was less than 100 nM; in assay [2] it was 17.8 nM.

In the case of `O=C(CN1C[C@H]2C[C@H](Oc3cc(F)cc(F)c3)C[C@H]2C1)c1ccc(O)cn1`, the values for the IC50 in assay [1] and in assay [2] were more than 10000 nM and 10000 nM, respectively.

Turning to `Oc1ccc(C(O)CN2C[C@H]3C[C@H](Oc4cc(F)cc(F)c4)C[C@H]3C2)nc1` (stereo partly drawn), the values for the IC50 in assay [1] and in assay [2] were less than 100 nM and 58.3 nM, respectively.

Turning to `O=C(CN1C[C@H]2C[C@H](Oc3cccnc3)C[C@H]2C1)c1ccc(O)cc1`, the IC50 is less than 100 nM in assay [1] and 81.5 nM in assay [2].

In the case of `Oc1ccc(C(O)CN2C[C@H]3C[C@H](Oc4ccc(F)nc4)C[C@H]3C2)cc1` (stereo partly drawn), the values for the IC50 in assay [1] and in assay [2] were less than 100 nM and 74.1 nM, respectively.

As to `O=C(CN1C[C@H]2C[C@H](Oc3ccccc3F)C[C@H]2C1)c1ccc(O)cn1`, the figures for the IC50 in assay [1] and in assay [2] were 100 to 1000 nM and 219 nM, respectively.

On to `Oc1ccc(C(O)CN2C[C@H]3C[C@H](Oc4ccc(F)nc4)C[C@H]3C2)nc1` (stereo partly drawn), for which the IC50 in assay [1] was 100 to 1000 nM; in assay [2], 112 nM.

As to `O=C(CN1C[C@H]2C[C@H](Oc3ccc(F)cc3F)C[C@H]2C1)c1ccc(O)cn1`, the IC50 is 1000 to 10000 nM in assay [1] and 1150 nM in assay [2].

On to `O=C(CN1C[C@H]2C[C@H](Oc3c(F)cccc3F)C[C@H]2C1)c1ccc(O)cn1`, for which the IC50 was 1000 to 10000 nM in assay [1] and 1080 nM in assay [2].

For `O=C(CN1C[C@H]2C[C@H](Oc3ccc(F)cc3F)C[C@H]2C1)c1ccc(O)cc1`, the values for the IC50 in assay [1] and in assay [2] were less than 100 nM and 41.1 nM, respectively.

As for `Cc1ccc(O[C@H]2C[C@@H]3CN(CC(=O)c4ccc(O)cn4)C[C@@H]3C2)c(F)c1`, the IC50 was 100 to 1000 nM in assay [1] and 225 nM in assay [2].

As for `O=C(CN1C[C@H]2C[C@H](Oc3c(F)cccc3F)C[C@H]2C1)c1ccc(O)cc1`, the IC50 is less than 100 nM in assay [1] and 29.3 nM in assay [2].

With `Oc1ccc(C(O)CN2C[C@H]3C[C@H](Oc4c(F)cccc4F)C[C@H]3C2)nc1` (stereo partly drawn), the IC50 in assay [1] was less than 100 nM; in assay [2], 9.6 nM.

Consider `Oc1ccc(C(O)CN2C[C@H]3C[C@H](Oc4ccc(F)cc4F)C[C@H]3C2)cc1` (stereo partly drawn), for which the IC50 in assay [1] is less than 100 nM; in assay [2], 8.62 nM.

On to `COC(CN1C[C@H]2C[C@H](Oc3ccc(F)cc3)C[C@H]2C1)c1ccc(O)cc1` (stereo partly drawn), for which the IC50 in assay [1] was 100 to 1000 nM; in assay [2], 139 nM.

Turning to `O=C(CN1C[C@H]2C[C@H](Oc3cnccn3)C[C@H]2C1)c1ccc(O)cc1`, the figures for the IC50 in assay [1] and in assay [2] were 100 to 1000 nM and 149 nM, respectively.

Consider `Oc1ccc(C(O)CN2C[C@H]3C[C@H](Oc4ccc(F)cc4)C[C@H]3C2)nc1` (stereo partly drawn), for which the IC50 was less than 100 nM in assay [1] and 4.41 nM in assay [2].

For the compound `Cc1cccc(O[C@H]2C[C@@H]3CN(CC(=O)c4ccc(O)cn4)C[C@@H]3C2)c1F`, the IC50 in assay [1] is 100 to 1000 nM; in assay [2], 435 nM.

As to `COc1cccc(F)c1O[C@H]1C[C@@H]2CN(CC(=O)c3ccc(O)cn3)C[C@@H]2C1`, the IC50 in assay [1] is more than 10000 nM; in assay [2], 10000 nM.

With `COc1ccc(F)c(O[C@H]2C[C@@H]3CN(CC(=O)c4ccc(O)cn4)C[C@@H]3C2)c1`, the IC50 in assay [1] was more than 10000 nM; in assay [2], 10000 nM.

As for `COc1cccc(F)c1O[C@H]1C[C@@H]2CN(CC(O)c3ccc(O)cn3)C[C@@H]2C1` (stereo partly drawn), the IC50 in assay [1] is 100 to 1000 nM; in assay [2], 163 nM.

For the compound `COc1ccc(F)c(O[C@H]2C[C@@H]3CN(CC(O)c4ccc(O)cn4)C[C@@H]3C2)c1` (stereo partly drawn), the IC50 in assay [1] was 100 to 1000 nM; in assay [2] it was 547 nM.

For the compound `COc1ccc(F)c(O[C@H]2C[C@@H]3CN(CC(=O)c4ccc(O)cc4)C[C@@H]3C2)c1`, the values for the IC50 in assay [1] and in assay [2] were 100 to 1000 nM and 631 nM, respectively.

Take `COc1ccc(F)c(O[C@H]2C[C@@H]3CN(CC(O)c4ccc(O)cc4)C[C@@H]3C2)c1` (stereo partly drawn): the IC50 in assay [1] was 100 to 1000 nM; in assay [2], 569 nM.

Regarding `O=C(CN1C[C@H]2C[C@H](Oc3cccc(F)c3F)C[C@H]2C1)c1ccc(O)cn1`, the IC50 in assay [1] is 100 to 1000 nM; in assay [2], 308 nM.

Take `Oc1ccc(C(O)CN2C[C@H]3C[C@H](Oc4ccc(F)cc4F)C[C@H]3C2)nc1` (stereo partly drawn): the IC50 in assay [1] is less than 100 nM; in assay [2], 6.81 nM.

For `Cc1ccc(O[C@H]2C[C@@H]3CN(CC(O)c4ccc(O)cn4)C[C@@H]3C2)c(F)c1` (stereo partly drawn), the IC50 in assay [1] is less than 100 nM; in assay [2], 14.4 nM.

`COc1cccc(O[C@H]2C[C@@H]3CN(CC(=O)c4ccc(O)cn4)C[C@@H]3C2)c1F`: the IC50 was 1000 to 10000 nM in assay [1] and 3780 nM in assay [2].

In the case of `Cc1cccc(O[C@H]2C[C@@H]3CN(CC(O)c4ccc(O)cn4)C[C@@H]3C2)c1F` (stereo partly drawn), the IC50 in assay [1] was less than 100 nM; in assay [2] it was 23.4 nM.

As to `Oc1ccc(C(O)CN2C[C@H]3C[C@H](Oc4cnccn4)C[C@H]3C2)cc1` (stereo partly drawn), the IC50 is 100 to 1000 nM in assay [1] and 243 nM in assay [2].

On to `Cc1cccc(O[C@H]2C[C@@H]3CN(CC(=O)c4ccc(O)cc4)C[C@@H]3C2)c1F`, for which the IC50 is 100 to 1000 nM in assay [1] and 177 nM in assay [2].

Turning to `COc1cccc(O[C@H]2C[C@@H]3CN(CC(O)c4ccc(O)cn4)C[C@@H]3C2)c1F` (stereo partly drawn), the results for the IC50 in assay [1] and in assay [2] were less than 100 nM and 50.8 nM, respectively.

Regarding `COc1cccc(O[C@H]2C[C@@H]3CN(CC(=O)c4ccc(O)cc4)C[C@@H]3C2)c1F`, the results for the IC50 in assay [1] and in assay [2] were 100 to 1000 nM and 117 nM, respectively.

Take `Cc1cccc(O[C@H]2C[C@@H]3CN(CC(O)c4ccc(O)cc4)C[C@@H]3C2)c1F` (stereo partly drawn): the values for the IC50 in assay [1] and in assay [2] were less than 100 nM and 72.6 nM, respectively.

On to `COc1cccc(O[C@H]2C[C@@H]3CN(CC(O)c4ccc(O)cc4)C[C@@H]3C2)c1F` (stereo partly drawn), for which the IC50 in assay [1] was less than 100 nM; in assay [2], 77.7 nM.

As to `Cc1ccc(O[C@H]2C[C@@H]3CN(CC(=O)c4ccc(O)cn4)C[C@@H]3C2)c(F)n1`, the results for the IC50 in assay [1] and in assay [2] were more than 10000 nM and 10000 nM, respectively.

As for `COc1cccc(F)c1O[C@H]1C[C@@H]2CN(CC(=O)c3ccc(O)cc3)C[C@@H]2C1`, the IC50 was 100 to 1000 nM in assay [1] and 466 nM in assay [2].

In the case of `COc1cccc(F)c1O[C@H]1C[C@@H]2CN(CC(O)c3ccc(O)cc3)C[C@@H]2C1` (stereo partly drawn), the IC50 in assay [1] was 100 to 1000 nM; in assay [2] it was 249 nM.

In the case of `Oc1ccc(C(O)CN2C[C@H]3C[C@H](Oc4c(F)cccc4F)C[C@H]3C2)cc1` (stereo partly drawn), the IC50 in assay [1] is less than 100 nM; in assay [2] it was 26.3 nM.

On to `O=C(CN1C[C@H]2C[C@H](Oc3ccccc3Cl)C[C@H]2C1)c1ccc(O)cn1`, for which the IC50 in assay [1] was 1000 to 10000 nM; in assay [2] it was 1660 nM.

As for `O=C(CN1C[C@H]2C[C@H](Oc3cncnc3)C[C@H]2C1)c1ccc(O)cc1`, the IC50 was 1000 to 10000 nM in assay [1] and 1040 nM in assay [2].

As to `Oc1ccc(C(O)CN2C[C@H]3C[C@H](Oc4cccc(F)c4F)C[C@H]3C2)nc1` (stereo partly drawn), the results for the IC50 in assay [1] and in assay [2] were less than 100 nM and 8.78 nM, respectively.
